Data set [1] can be described thus: Acute oral toxicity in rats. As to conditions: 2 g/kg L-carnitine or 500 mg/kg hexacosanol, alone or in combination. It counts as in vivo.
Data set [2] is described as follows: Acute oral toxicity in mice. As to conditions: 2 g/kg L-carnitine or 500 mg/kg hexacosanol, alone or in combination. It counts as in vivo.
Data set [3] can be described thus: Prolonged daily administration (30 days) tolerability, body weight, blood chemistry and histology. In kind it is in vivo, rats and mice. As to conditions: daily for 30 days; carnitine 250 mg/kg or hexacosanol 20 mg/kg, alone or in combination. The source says: Moreover, no abnormalities were found at histological examination of the parenchyma of the main organs (heart, lungs, kidneys, adrenal glands and pancreas).

Data set [4] relates to ATP content of the papillary muscle. The experiment in a line: ATP concentrations in papillary muscle of rabbits with induced hypoxia. Particulars: L-carnitine 100 mg/kg, hexacosanol 10 mg/kg or both, i.v. daily for 3 days; for ATP content after hypoxia: 60 min of hypoxia, controls 0.45 ± 0.03; for ATP content before hypoxia: normal perfusion 90 min, controls 1.65 ± 0.28. It counts as in vivo, New Zealand rabbits. On the procedure: These tests were performed in New Zealand rabbits with a mean body weight of 2 kg, receiving daily intravenous injections of a solution containing 100 mg/kg of L-carnitine or 10 mg/kg of hexacosanol, or of the two substances combined at the same doses, for 3 consecutive days. A group of animals received no treatment and served as the control group.
All the animals treated were sacrificed along with the controls at the end of the third day of treatment two hours after the last injection. The hearts were removed and equal sections of papillary muscle measuring 1 mm in diameter and 4-5 mm in thickness were isolated. These tissues were perfused in a thermostatic bath with a (100%) saturated O2 solution. Experimental hypoxia conditions were induced by introducing N2 (100%) into the bath in place of O2. […] The analysis was done on tissue samples maintained under normal perfusion conditions for 90 min and after 60 min of hypoxia.

Data set [5] deals with left ventricular arrhythmias due to myocardial anoxia. Nature of the data set: Cardiac anoxia induced by coronary ligation (left ventricular arrhythmias). It counts as in vivo, Male Wistar rats. Particulars: for Start of arrhythmias / Total ectopic contractions during 30 min after coronary ligation: L-carnitine 100 mg/kg, hexacosanol 10 mg/kg or both into left ventricle 15 min before ligation; for Start of arrhythmias: controls 4-7; for Total ectopic contractions during 30 min after coronary ligation: controls 992 ± 118; for ability to reduce ectopic contractions (in words): administered alone. As to the method:
These tests were performed to evaluate the protective action of L-carnitine and hexacosanol and their combination on left ventricular arrhythmias due to myocardial anoxia induced by coronary ligation according to the technique described by Selych et cal. (Angiology 11-398, 1960) and by Clark et al. (J Pharmacol Methods 3-357, 1980). Male Wistar rats with a mean body weight of 350-400 g were submitted to surgical occlusion of the left coronary artery. Arrhythmias set in within 4-7 min of coronary ligation. Ventricular ectopic contractions were then counted during a period of 30 min both in a group of control rats and in the groups of rats receiving slow injection of a solution containing L-carnitine (100 mg/kg), hexacosanol (10 mg/kg) or the two substances in combination at the same doses into the left ventricle 15 min before ligation.

Data set [6] deals with atherosclerotic lesions (abdominal aorta). Nature of the data set: Experimental atherosclerosis tests (atherogenic diet). In kind it is in vivo, Wistar male rats. As to conditions: abdominal aorta thickness and Sudan IV staining, 1- to 5-point score. As to the method: D2 200 m STU/g diet. The anti-atherogenic effect of both L-carnitine and hexacosanol were evaluated by using morphometric methods to measure the thickness of the abdominal aorta and the intensity of the staining induced by Sudan IV, with a 1- to 5-point scoring system, according to the degree of severity.

The subject of a further data set is blood cholesterol. The experiment in a line: Experimental cholesterolaemia tests. In kind it is in vivo. Particulars: for total cholesterol: daily for six weeks with cholesterolaemia-lowering diet, L-carnitine 100 mg/kg, hexacosanol 10 mg/kg or both, controls 95.2 ± 5.4, hypercholesterolaemic controls 285.7 ± 11.2; for cholesterolaemia-lowering action (in words): six weeks. An excerpt:
In experimental cholesterolaemia, too, a marked synergistic effect of the L-carnitine plus hexacosanol combination was detected. In these tests, the experimental cholesterolaemia was induced according to the method described by Sirtori (Sirtori CR, Atherosclerosis 26-27, 1977). Treatment both With L-carnitine and hexacosanol, as well as with the two compounds in combination, was continued daily for six weeks, in conjunction with a cholesterolaemia-lowering diet. On completing the six weeks of treatment, blood cholesterol was assayed both in control animals put on a cholesterolaemia-lowering diet alone and in animals treated with L-carnitine, or with hexacosanol, or with the two compounds in combination. Using the assay method described by Roschlan (Roschlan P, Clin Chem Clin Biochem 12: 403, 1975).

For the next data set, the system named is platelet aggregation. The experiment in a line: Platelet aggregation inhibition tests (collagen-induced). It counts as cell-based, healthy volunteers. As to conditions: collagen 2.5 ng/mL, 10 min incubation. On the procedure:
The tests were performed using plasma from healthy volunteers containing at least 300,000 platelets/mm^3.
The platelet count was done using a CA 580A Platelet Counter (Delcon). Platelet aggregation was induced using collagen as the aggregating agent at doses of 2.5 and 5 ng/mL according to the technique described by Born and Cross (Born YVR, Cross M, J Physiol 26: 25, 1963).
Platelet aggregation was determined photometrically (Born VJR, Nature 194: 927, 1962) using an Elvi 840 aggregometer.
Platelet aggregation was measured in basal conditions and after 10 min of incubation with L-carnitine, hexacosanol and the L-carnitine-hexacosanol combination.

SMILES strings stand for the structures.

`C[N+](C)(C)C[C@H](O)CC(=O)[O-]` [L-carnitine]: in data set [1], the mortality entry is listed as “without any mortality” and the signs of toxicity entry is “without any evident signs of toxicity”. Further, in data set [2], the mortality result is given as “without any mortality” and the signs of toxicity result is listed as “without any evident signs of toxicity”. For the same molecule, the “signs of toxic reactions or of poor tolerability” value in data set [3] is recorded as “failed to produce any signs of toxic reactions or of poor tolerability”. Also, in data set [4], the ATP content after hypoxia came out at 0.67 ± 0.02 µmol/g tissue and the ATP content before hypoxia was found to be 1.77 ± 0.25 µmol/g tissue. In addition, in data set [5], the Start of arrhythmias lay in the range of 4 to 7 min, the “Total ectopic contractions during 30 min after coronary ligation” value stood at 860 ± 202 and the “ability to reduce ectopic contractions (in words)” value is on record as “only a very limited ability to reduce ectopic contractions”. Also, in data set [6], the “severity/occurrence of atherosclerotic lesions (in words)” value is listed as “capable of reducing the severity of the atherosclerotic lesions”. Besides, in the data set with blood cholesterol, the total cholesterol was 265.5 ± 6.1 mg/dL and the “cholesterolaemia-lowering action (in words)” value is given as “fairly modest”. In addition, the “effect on platelet aggregation induced by collagen (in words)” value with platelet aggregation was “not changed”.

In data set [4], `CCCCCCCCCCCCCCCCCCCCCCCCCCO` [Hexacosanol] showed an ATP content after hypoxia of 0.77 ± 0.05 µmol/g tissue and an ATP content before hypoxia of 1.7 ± 0.3 µmol/g tissue. Also, in data set [5], the Start of arrhythmias lay within 5 to 7 min, the “Total ectopic contractions during 30 min after coronary ligation” value turned out to be 810 ± 190 and the “ability to reduce ectopic contractions (in words)” value is “only a very limited ability to reduce ectopic contractions”. For the same molecule, the “severity/occurrence of atherosclerotic lesions (in words)” value in data set [6] is reported as “capable of reducing the severity of the atherosclerotic lesions”. Besides, in the data set on blood cholesterol, the total cholesterol was 268.5 ± 5.6 mg/dL and the “cholesterolaemia-lowering action (in words)” value is on record as “fairly modest”. In addition, the IC50 with platelet aggregation (Homo sapiens, Platelet, 10 min, read-out: ED50, inhibition of platelet aggregation induced by collagen) was 5.5 ng/mL. Besides, the “effect on platelet aggregation induced by collagen (in words)” value in the data set on platelet aggregation was “only partly inhibiting the platelet aggregation”.

The record behind these values is US6328998A, “Composition comprising L-carnitine or an alkanoyl L-carnitine and long-chain alkanols” (Sigma-Tau Industrie Farmaceutiche Riunite S.p.A., priority 1997, dated 2001).
